According to article PMC10804407, “Rombocin, a Short Stable Natural Nisin Variant, Displays Selective Antimicrobial Activity against Listeria monocytogenes and Employs a Dual Mode of Action to Kill Target Bacterial Strains” (ACS Synthetic Biology, 2024):
Converted amounts (≈) assume the structure as drawn. Like-named read-outs stand apart in the source and are kept apart here. Primed or numbered codes have the meaning given here. Where no end group is shown, it is not given here. [ ]: non-standard residue; d: D form. Dhb′ = not defined here; Dha = C=C(N)C(=O)O

Columns and labels:
[1] = test system: L. lactis; experiment: Fluorescence microscopy assay of membrane integrity (SYTO 9 / propidium iodide); format: cell-based, Lactococcus lactis; conditions: 5× MIC, 15 min / 20 min (method), room temperature
Method: L. lactis was cultured until it reached an OD600 of 0.8 and then pelleted at 8000g for 5 min and washed three times in 0.7% NaCl. The cell density was normalized to an OD600 of 0.4 in 0.7% NaCl, and a concentration of 5-fold MIC value of each tested antibiotic was added to the cell suspension simultaneously with SYTO 9 and propidium iodide using the LIVE/DEAD Baclight Bacterial Viability Kit (Invitrogen). After incubation at room temperature for 20 min, the compounds were removed by washing the cells with 0.7% NaCl. Finally, the cell suspensions were loaded onto 1.5% agarose pads and analyzed with a DeltaVision Elite microscope (Applied Precision).

[2] = test system: Bacillus cereus CH-85; format: cell-based
Method: (§1) Each experiment was performed in triplicate.

[3] = test system: L. monocytogenes TT82E; format: cell-based, Listeria monocytogenes
Method: as §1

[4] = test system: L. monocytogenes LK132; format: cell-based, Listeria monocytogenes
Method: as §1

[5] = test system: L. monocytogenes LMG10470; format: cell-based, Listeria monocytogenes
Method: as §1

[6] = test system: trypsin, chymotrypsin, and proteinase K; experiment: Stability against proteolytic enzymes by residual antimicrobial activity; format: in vitro ADME; conditions: 40 μL peptide (1 mg/mL) with 1 mg/mL proteolytic enzymes, room temperature, 3 h; residual activity in agar well vs L. lactis 1363; triplicate
Method: To investigate the impact of proteolytic enzymes, pH, and temperature on the antimicrobial activity, a representative strain of L. lactis 1363 was utilized. For the proteolytic enzyme assay, 40 μL of peptide (1 mg/mL) was incubated with or without final concentrations of 1 mg/mL proteolytic enzymes at room temperature for 3 h, followed by an activity test in the agar well. To determine pH stability, the pH was adjusted to 2, 4, 7, and 10 using 1 M HCl or NaOH. The temperature stability was assessed by incubating the peptide at 22, 50, 70, and 90 °C for a specified duration. All experiments were performed in triplicate.
Overnight cultures of the test strains were inoculated at a final concentration of 0.1% (v/v) into melted LB agar at 45 °C and then poured onto plates. After solidification, 8 mm wells were created and filled with 40 μL of the lantibiotic solution (1 mg/mL). The lantibiotics were activated by adding 5 μL of NisP directly to the well. The plates were then incubated overnight at 30 °C, and the zone of inhibition was measured. Zone diameters were calculated by subtracting the area of the well (πr^2) from the area of the zone (πr^2) and reported in millimeters. To determine the peptide concentration, purified and lyophilized peptides were resuspended in 0.05% aqueous acetic acid solution and quantified by HPLC following the protocol described by Schmitt et al.[44] […]

[7] = test system: E. faecium LMG16003 (VRE); format: cell-based, Enterococcus faecium
Method: as §1

[8] = test system: E. faecium LMG11423; format: cell-based, Enterococcus faecium
Method: as §1

[9] = test system: L. lactis; experiment: Potassium ion efflux assay (PBFI probe); format: cell-based, Lactococcus lactis; conditions: 5× MIC, 10 mM HEPES pH 7.2 with 0.5% glucose, 10 μM PBFI
Method: To perform the K^+ release assay, we used the K^+-specific fluorescent probe PBFI. L. lactis was cultured in GM17 until the OD600 reached 0.6, after which the cells were harvested (5000g, 5 min) and washed twice with 10 mM HEPES (pH 7.2) with 0.5% glucose. The cells were then resuspended in the same buffer containing 10 μM PBFI. Data were analyzed using a Varioskan LUX Multimode Microplate Reader; cells were excited at 346 nm, and the fluorescence emission was measured at 505 nm to establish a baseline signal before the addition of 5-fold MIC antibiotics, after which data were collected. Nisin was used as a positive control.

[10] = test system: E. faecalis LMG16216 (VRE); format: cell-based, Enterococcus faecalis
Method: as §1

[11] = test system: L. lactis MG1363; format: cell-based, Lactococcus lactis
Method: as §1

[12] = test system: L. lactis; experiment: Membrane potential determination (DiSC3(5) probe); format: cell-based, Lactococcus lactis; conditions: 5× MIC, 10 mM HEPES with 10 mM glucose pH 7.2, 2 μM DiSC3(5), 25 min
Method: To measure the membrane potential, the membrane potential-sensitive fluorescent dye DiSC3(5) was utilized. L. lactis was cultured to an OD600 of 0.8, pelleted at 5000g for 5 min, and washed twice in 10 mM HEPES with 10 mM glucose (pH 7.2). The cell density was adjusted to an OD600 of 0.2 and loaded with 2 μM DiSC3(5) dye, followed by 20 min of incubation in the dark to stabilize the probe fluorescence. Next, the cell suspension was added to a 96-well microplate and incubated for 5 min with 100 mM KCl. […] The fluorescence spectrometer’s excitation and emission wavelengths were adjusted to 622 and 670 nm, respectively. Three technical replicates were performed, and the representative example is shown.

[13] = test system: S. aureus LMG15975 (MRSA); format: cell-based, Staphylococcus aureus
Method: as §1

[14] = test system: S. aureus LMG10147; format: cell-based, Staphylococcus aureus
Method: as §1

[15] = test system: L. lactis MG1363; experiment: Time-kill assay; format: cell-based, Lactococcus lactis; conditions: L. lactis, 5-fold MIC, time-dependent killing
Method: The bactericidal activity of nisin, nisin(1–22), and rombocin was evaluated according to a previously described procedure based on Guo et al.[38] Briefly, an overnight culture of L. lactis MG1363 was diluted 50-fold in GM17 medium and incubated at 30 °C. The bacteria were grown until reaching an optical density at 600 nm (OD600) of 0.5, at which point the cell concentration was adjusted to 5 × 10^5 CFU/mL. Subsequently, the bacteria were challenged with a 5-fold MIC of each peptide. A control sample of an untreated cell suspension was included. At specific time points, 50 μL aliquots were collected, and undiluted and 10-fold serially diluted suspensions were plated on GM17 agar. The plates were incubated overnight at 30 °C, and the resulting colonies were counted and calculated as colony-forming units per milliliter (CFU/mL). Both assays were performed in triplicate to ensure reproducibility.

[16] = test system: L. monocytogenes LMG10470; experiment: Agar well diffusion assay and mutant-activity test; format: cell-based, Listeria monocytogenes; conditions: 40 μL of 1 mg/mL, zone of inhibition, triplicate
Method: Overnight cultures of the test strains were inoculated at a final concentration of 0.1% (v/v) into melted LB agar at 45 °C and then poured onto plates. After solidification, 8 mm wells were created and filled with 40 μL of the lantibiotic solution (1 mg/mL). The lantibiotics were activated by adding 5 μL of NisP directly to the well. The plates were then incubated overnight at 30 °C, and the zone of inhibition was measured. Zone diameters were calculated by subtracting the area of the well (πr^2) from the area of the zone (πr^2) and reported in millimeters. To determine the peptide concentration, purified and lyophilized peptides were resuspended in 0.05% aqueous acetic acid solution and quantified by HPLC following the protocol described by Schmitt et al.[44] All experiments were performed in triplicate.

C=C(NC(=O)[C@@H](NC(=O)[C@H](Cc1c[nH]cn1)NC(=O)[C@@H](NC(=O)[C@H](CO)NC(=O)[C@@H]1CS[C@@H](C)[C@H]2NC(=O)[C@H](C)NC(=O)[C@H](NC(=O)[C@H](CCCCN)NC(=O)[C@H](CCSC)NC(=O)[C@H](CC(N)=O)NC(=O)[C@@H]3CS[C@@H](C)[C@@H](NC(=O)[C@H](CCCCN)NC(=O)[C@@H]4CS[C@@H](C)[C@@H](NC(=O)[C@@H]5CSC[C@@H](NC(=O)/C(=C/C)NC(=O)[C@@H](N)[C@@H](C)CC)C(=O)N[C@@H]([C@@H](C)CC)C(=O)NC(=C)C(=O)N[C@@H](CC(C)C)C(=O)N5)C(=O)N5CCC[C@H]5C(=O)NCC(=O)N4)C(=O)NCC(=O)N[C@@H](C)C(=O)N[C@@H](CC(C)C)C(=O)N[C@@H](CCSC)C(=O)NCC(=O)N3)[C@H](C)SC[C@H](NC2=O)C(=O)N[C@@H](CC(N)=O)C(=O)N1)[C@@H](C)CC)C(C)C)C(=O)N[C@@H](CCCCN)C(=O)O [nisin Z, reference compound]
membrane integrity (SYTO 9 / propidium iodide fluorescence) [1]: membrane disruption
MIC ([2]; Bacillus cereus CH-85, broth microdilution, no visible growth, triplicate): 6,25 μg/mL
fold lower MIC of nisin than rombocin A ([2]; against Bacillus cereus): 4 fold
MIC ([3]; L. monocytogenes TT82E, broth microdilution, no visible growth, triplicate): 1,56 μg/mL
MIC ([4]; L. monocytogenes LK132, broth microdilution, no visible growth, triplicate): 12,5 μg/mL
fold lower MIC of nisin than rombocin A ([4]; against L. monocytogenes LK132): 2 fold
MIC ([5]; L. monocytogenes LMG10470, broth microdilution, no visible growth, triplicate): 3,13 μg/mL
resistance to proteolytic enzymes [6]: varying stability
MIC ([7]; E. faecium LMG16003 (VRE), broth microdilution, no visible growth, triplicate): 3,13 μg/mL
MIC ([8]; E. faecium LMG11423, broth microdilution, no visible growth, triplicate): 3,13 μg/mL
fold higher antimicrobial activity of nisin than rombocin A (MIC) ([8]; against Enterococcus faecium (strain not given)): 32 times
release of intracellular potassium ions (PBFI fluorescence) [9]: immediate increase in signal
MIC ([10]; E. faecalis LMG16216 (VRE), broth microdilution, no visible growth, triplicate): 3,13 μg/mL
fold lower MIC of nisin than rombocin A ([10]; against Enterococcus faecalis): 16 fold
MIC ([11]; L. lactis MG1363, broth microdilution, lowest concentration with no visible growth, triplicate): 0,02 μg/mL
fold lower MIC of nisin than that of rombocin ([11]; against L. lactis): 40 times
membrane depolarization (DiSC3(5) fluorescence) [12]: significant membrane depolarization, similar to nisin
MIC ([13]; S. aureus LMG15975 (MRSA), broth microdilution, no visible growth, triplicate): 6,25 μg/mL
MIC ([14]; S. aureus LMG10147, broth microdilution, no visible growth, triplicate): 6,25 μg/mL
fold lower MIC of nisin than rombocin A ([14]; against S. aureus (strain not given)): 16 fold

nisin(1–22): truncated nisin variant, bacteriostatic control that only binds lipid II (I[Dhb′]SI[Dha]LCTPGCKTGALMGCNMK; also: lantibiotic: thioether rings and dehydrated residues not placed; UniProt P13068 24-45, looked up, fragment)
membrane integrity (SYTO 9 / propidium iodide fluorescence) [1]: did not cause any significant membrane disruption
release of intracellular potassium ions (PBFI fluorescence) [9]: did not have this effect
bacteriostatic or bactericidal activity [15]: bacteriostatic effect
membrane depolarization (DiSC3(5) fluorescence) [12]: did not

C=C1NC(=O)[C@H]([C@@H](C)CC)NC(=O)[C@H](NC(=O)/C(=C/C)NC(=O)[C@@H](N)[C@@H](C)CC)CSC[C@@H](C(=O)N[C@H]2C(=O)N[C@@H](C)C(=O)NCC(=O)N[C@H](C(=O)N[C@@H](CCCCN)C(=O)N[C@H]3C(=O)NCC(=O)N[C@@H](C(C)C)C(=O)N[C@@H]([C@@H](C)CC)C(=O)N[C@@H](CCSC)C(=O)N/C(=C\C)C(=O)N[C@H](C(=O)N[C@@H](CCSC)C(=O)N[C@@H]4CSC[C@@H](C(=O)N[C@@H](CCCCN)C(=O)O)NC(=O)CNC(=O)[C@H](CC(N)=O)NC4=O)CS[C@H]3C)CS[C@H]2C)NC(=O)[C@H](CC(C)C)NC1=O [rombocin K]
MIC ([2]; CH-85): 25 µg/mL (≈ 10.4 µM)
MIC ([3]; TT82E): 6,25 μg/mL
MIC ([4]; LK132): 12,5 μg/mL
MIC ([5]; LMG10470): 12,5 μg/mL
fold lower MIC compared to the wild-type rombocin ([5]; against all tested Listeria strains): 2 fold
MIC ([7]; LMG16003): 50 µg/mL (≈ 20.9 µM)
MIC ([8]; LMG11423): 50 µg/mL (≈ 20.9 µM)
increase in antimicrobial activity relative to wild-type rombocin [16]: 13%
MIC ([10]; LMG16216): 50 µg/mL (≈ 20.9 µM)
MIC ([11]; MG1363): 0,78 μg/mL
MIC ([13]; LMG15975): 100 µg/mL (≈ 41.7 µM)
MIC ([14]; LMG10147): 100 µg/mL (≈ 41.7 µM)
